Assay results from US20250332265A1, “PSMA TARGETED CONJUGATE COMPOUNDS AND USES THEREOF” (priority 2021, published 2025).

Columns and labels:
[1] = tested on: PSMA-negative PC3flu cells; test: In vitro cytotoxicity assay (CCK-8), PC3flu; format: cell-based, human; details: 72 hours incubation, CCK-8
Description: (§1) Cells (1,000/well) were seeded in 96-well culture plates the day before treatment. Cells were incubated with various concentrations of drugs for 72 hours and cell viability evaluated by CCK-8 (Dojindo). The concentration required to reach 50% of cell proliferation was determined (IC50) by GraphPad Prism 3.0.

[2] = tested on: PSMA receptor expressed on the PC3pip cells; test: In vitro cellular uptake studies, Example 1; format: cell-based, human; details: 50 nM, 4 hours
Description: PC3pip and PC3flu cells were seeded in p-Slide 8-Well Chamber Slide (ibidi GmbH) at 2,000 cells/well. When cells grew to 70% confluency, PSMA-1-VcMMAE-Cy5.5 or PSMA-1-McMMAE-Cy5.5 conjugations were added at 50 nM and incubated at 37° C. for 4 hours. Cells were washed with PBS and stained with DAPI and LysoOrange (Abcam) for 30 minutes at 37° and 5% CO2, after which they were washed again with PBS and filled with fresh medium. Selectivity was determined by including 20-fold excess of the PSMA-1 ligand. The uptake and localization of the drug conjugates were visualized under a Leica HyVolution SP8 confocal microscope at 40×.

[3] = tested on: PSMA-positive PC3pip cells; test: In vitro cytotoxicity assay (CCK-8), PC3pip; format: cell-based, human; details: 72 hours incubation, CCK-8
Description: as §1

human liver cathepsin B = target: T1, human liver cathepsin B (Homo sapiens, UniProt P07858); test: Enzymatic cleavage by cathepsin B, Example 1; format: in vitro ADME; details: 2 μM conjugate, 37° C., HPLC
T1 construct: purchased Anthens Research and Technology; host or cells: human liver (tissue-derived enzyme)
Description: PSMA-1-VcMMAE-Cy5.5 or PSMA-1-McMMAE-Cy5.5 was added to 500 μL of activated human liver cathepsin B (Anthens Research and Technology) solution to a final concentration of 2 μM and incubated at 37° C. At different time intervals, 40 µL of the solution was taken out into tubes loaded with 1 μL of 1 mM E64 protease inhibitor. The mixture was vortexed and then stored at −80° C. for future HPLC analysis to assess degradation of PSMA-1-VcMMAE-Cy5.5 or PSMA-1-McMMAE-Cy5.5. Studies were performed in triplicate.

[4] = tested on: α-tubulin in PC3pip and PC3flu cells; test: Immunofluorescence analysis of alpha-tubulin; format: cell-based, human; details: 5 nM, 24 hours
Description: Cells on coverslips at about 70% confluency were incubated with 5 nM of MMAE, PSMA-1-VcMMAE-Cy5.5 or PSMA-1-McMMAE-Cy5.5 for 24 hours. Cells were washed and fixed with 4% paraformaldehyde for 10 minutes, permeabilized with 0.1% Triton™ X-100 for 10 minutes, and blocked with 1% BSA for 1 hour at room temperature. Alpha-tubulin (B5-1-2) Alexa Fluor 488 Mouse Monoclonal Antibody (Invitrogen) was then added at 2 μg/mL in 0.1% BSA and incubated for 3 hours at room temperature. Cells were counterstained with DAPI, mounted with Fluor-Mount aqueous mounting solution, and observed under Leica DM4000B fluorescence microscopy at 40×.

[5] = Stability of conjugates incubated with PBS, Example 1; format: physicochemical; details: without enzyme
Description: To investigate if PSMA-targeted drug conjugates were cleavable by cathepsin B, the two conjugates were incubated with or without the enzyme and chromatographed by HPLC. When the conjugates were incubated with PBS, both PSMA-1-VcMMAE-Cy5.5 and PSMA-1-McMMAE-Cy5.5 were stable (FIG. 1D).

PC3pip and PC3flu tumors = test: In vivo NIR imaging studies, Example 1; design: species or system mice; details: 40 nmol/kg i.v., fluorescence imaging
Description: Under guidelines of the animal care and use committee at Case Western Reserve University (IACUC #150033) 6 to 8-week old male Balb/cathymic nude mice were implanted subcutaneously with 1×10^6 of PC3flu and PC3pip on the left and right dorsum respectively. Mice received 40 nmol/kg of PSMA-1-VcMMAE-Cy5.5 or PSMA-1-McMMAE-Cy5.5 in PBS via tail vein injection when tumors reached 10 mm in diameter. Fluorescence imaging was performed using the Maestro In Vivo Imaging system (Perkin-Elmer). Multispectral images were unmixed into their component spectra (PSMA probes, autofluorescence, and background) to quantitate the average fluorescence intensity associated with the tumors using regions of interest (ROIs) around the tumors.

PSMA [6] = target: T2, PSMA (Homo sapiens, UniProt Q04609); test: Competition binding studies, Example 2; details: PC3pip cells, 12 nM 3H-ZJ24, 1 h, 37° C.; read-out: IC50, concentration required to inhibit 50% of the binding
T2 construct: expressed in transfected cells; host or cells: PC3pip cells (PC3 retrovirally transduced with PSMA), from Dr. Michel Sadelain, MSKCC
Description: PC3pip cells ([…]) was suspended in 200 μL of 50 mM Tris buffer, pH 7.5. The cells were incubated at 37° C. with different concentrations of PSMA-1-MMAE-IR700 or ZJ24 in the presence of 12 nM of 3H-ZJ24 for 1 h. The cells were then washed 3 times with cold PBS and cell-associated radioactivity was measured by scintillation counting. The concentration required to inhibit 50% of the binding (IC50) was determined by GraphPad Prism 3.0. Studies were performed in triplicate.

PSMA [7] = target: T2, PSMA; test: Competitive binding assay (3H-ZJ24 displacement), Example 1; details: PC3pip cells, 10 nM 3H-ZJ24; read-out: IC50, concentration required to inhibit 50% of binding
Description: The assay was carried as previously reported by incubation PC3pip cells with different concentrations of drug conjugates in the presence of 10 nM N—[N—[(S)-1,3-dicarboxypropyl]carbamoyl]-S-[^3H]-methyl-L-cysteine (^3H-ZJ24) (GE Healthcare Life Sciences, Pittsburgh, PA). Radioactivity of cell pellet was counted by scintillation counter.

T2 sequence (Q04609 whole entry): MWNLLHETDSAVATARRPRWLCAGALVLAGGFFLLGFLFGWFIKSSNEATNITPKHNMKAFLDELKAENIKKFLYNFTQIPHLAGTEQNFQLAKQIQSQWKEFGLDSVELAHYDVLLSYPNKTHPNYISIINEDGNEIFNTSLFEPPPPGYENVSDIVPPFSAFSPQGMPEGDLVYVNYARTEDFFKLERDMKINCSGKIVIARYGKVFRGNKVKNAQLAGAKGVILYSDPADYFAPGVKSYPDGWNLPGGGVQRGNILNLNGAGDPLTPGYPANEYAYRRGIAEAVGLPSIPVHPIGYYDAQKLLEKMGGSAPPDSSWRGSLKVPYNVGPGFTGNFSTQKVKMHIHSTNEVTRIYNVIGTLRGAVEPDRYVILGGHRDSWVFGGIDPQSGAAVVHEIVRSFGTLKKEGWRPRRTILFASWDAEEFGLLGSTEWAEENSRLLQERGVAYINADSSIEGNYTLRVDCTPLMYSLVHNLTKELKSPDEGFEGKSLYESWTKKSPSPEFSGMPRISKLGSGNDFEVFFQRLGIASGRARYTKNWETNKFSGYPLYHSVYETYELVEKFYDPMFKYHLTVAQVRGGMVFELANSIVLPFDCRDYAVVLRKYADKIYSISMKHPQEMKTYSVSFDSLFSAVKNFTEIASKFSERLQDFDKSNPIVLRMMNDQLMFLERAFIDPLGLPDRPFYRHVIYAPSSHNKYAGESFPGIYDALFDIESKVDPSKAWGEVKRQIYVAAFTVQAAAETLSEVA

Row | IC50 (PSMA [6]) | IC50 (PSMA [7]) | Compound | IC50 cytotoxicity, PC3flu cells [1] | cellular binding and uptake, competition with PSMA-1 ligand [2] | IC50 cytotoxicity, PC3pip cells [3] | cleavage by cathepsin B (human liver cathepsin B) | disruption of α-tubulin network [4] | stability when incubated with PBS [5] | time of peak uptake in PC3pip tumors (PC3pip and PC3flu tumors)
1 | – | – | CC[C@H](C)[C@@H]([C@@H](CC(=O)N1CCC[C@H]1[C@H](OC)[C@@H](C)C(=O)N[C@H](C)[C@@H](O)c1ccccc1)OC)N(C)C(=O)[C@@H](NC(=O)[C@H](C(C)C)N(C)C(=O)CCCCCN1C(=O)CC(SC[C@H](NC(=O)[C@H](CCC(=O)O)NC(=O)[C@H](CCC(=O)O)NC(=O)[C@H](CCC(=O)O)NC(=O)CCCCCNC(=O)[C@H]2CC[C@H](CNC(=O)CC[C@H](NC(=O)N[C@@H](CCC(=O)O)C(=O)O)C(=O)O)CC2)C(=O)NCCCCCC(=O)N[C@@H](CCCCNC(=O)CCCCC[N+]2=C(/C=C/C=C/C=C3/N(C)c4ccc5ccccc5c4C3(C)C)C(C)(C)c3c2ccc2ccccc32)C(N)=O)C1=O)C(C)C (stereo partly drawn) [PSMA-1-McMMAE-Cy5.5] | no IC50 values could be obtained | selective and specific for the PSMA receptor | no IC50 values could be obtained | remained intact | no obvious disruption of tubulin | stable | 24 h
2 | 10.7 ± 0.89 nM | 11.7 nM | NCCCC[C@H](NC(=O)N[C@@H](CCC(=O)O)C(=O)O)C(=O)O [ZJ24, (S)-2-(3-((S)-5-amino-1-carboxypentyl)-ureido)pentanedioic acid, reference compound] | – | – | – | – | – | – | –
